From US11186564B2, “Dual NAV1.2/5HT2a inhibitors for treating CNS disorders” (Sunovion Pharmaceuticals Inc., priority 2016, dated 2021) come the findings set out here.

Like-named read-outs stand apart in the source and are kept apart here.

Test [1] addresses human sodium channel NaV1.2 (Homo sapiens, UniProt Q99250). Briefly: NaV1.2 inhibition, automated patch-clamp (Q-Patch HTX), slow inactivated state (state C). In kind it is cell-based. To be noted: hNaV1.2 CHO cells, slow inactivated state; for IC50: read-out: NaV1.2 IC50; for inhibition at 10 µM: 10 μM compound, read-out: NaV1.2 (% inh), 10 μM; for inhibition at 1 µM: 1 μM compound, read-out: NaV1.2 (% inh), 1 μM. In short, it runs like this:
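IC50 comes from a least-squares fit of percent inhibition, relative to vehicle, of current in the slow-inactivated state. That state is reached by a 10 s prepulse to −50 mV, then 15 ms at −90 mV, then a 5 ms test pulse to 0 mV. Human NaV1.2 in stable CHO K-1 cells, held at −100 mV, automated patch clamp.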

For test [2], the target named is T1, recombinant human serotonin receptor 5-HT2A (Homo sapiens, UniProt P28223).
T1 construct: expressed in transfected cells; method B: loaded with Ca2+ dye
Briefly: 5-HT2A antagonist Ca2+ assay in CHO-K1 cells (method A aequorin luminescence / method B FLIPR fluorescence). The settings on record: antagonist mode vs EC80 of reference agonist, method A or B. The format is cell-based. In short, it runs like this: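 IC50 was obtained by nonlinear regression of percent inhibition of the EC80 agonist Ca2+ response in CHO-K1 cells stably expressing human 5-HT2A. The readout was aequorin luminescence with agonist injected 15 min after compound (A), or Ca2+-dye fluorescence on FLIPR with serotonin as agonist (B).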

Chain of human sodium channel NaV1.2 (Q99250 whole entry): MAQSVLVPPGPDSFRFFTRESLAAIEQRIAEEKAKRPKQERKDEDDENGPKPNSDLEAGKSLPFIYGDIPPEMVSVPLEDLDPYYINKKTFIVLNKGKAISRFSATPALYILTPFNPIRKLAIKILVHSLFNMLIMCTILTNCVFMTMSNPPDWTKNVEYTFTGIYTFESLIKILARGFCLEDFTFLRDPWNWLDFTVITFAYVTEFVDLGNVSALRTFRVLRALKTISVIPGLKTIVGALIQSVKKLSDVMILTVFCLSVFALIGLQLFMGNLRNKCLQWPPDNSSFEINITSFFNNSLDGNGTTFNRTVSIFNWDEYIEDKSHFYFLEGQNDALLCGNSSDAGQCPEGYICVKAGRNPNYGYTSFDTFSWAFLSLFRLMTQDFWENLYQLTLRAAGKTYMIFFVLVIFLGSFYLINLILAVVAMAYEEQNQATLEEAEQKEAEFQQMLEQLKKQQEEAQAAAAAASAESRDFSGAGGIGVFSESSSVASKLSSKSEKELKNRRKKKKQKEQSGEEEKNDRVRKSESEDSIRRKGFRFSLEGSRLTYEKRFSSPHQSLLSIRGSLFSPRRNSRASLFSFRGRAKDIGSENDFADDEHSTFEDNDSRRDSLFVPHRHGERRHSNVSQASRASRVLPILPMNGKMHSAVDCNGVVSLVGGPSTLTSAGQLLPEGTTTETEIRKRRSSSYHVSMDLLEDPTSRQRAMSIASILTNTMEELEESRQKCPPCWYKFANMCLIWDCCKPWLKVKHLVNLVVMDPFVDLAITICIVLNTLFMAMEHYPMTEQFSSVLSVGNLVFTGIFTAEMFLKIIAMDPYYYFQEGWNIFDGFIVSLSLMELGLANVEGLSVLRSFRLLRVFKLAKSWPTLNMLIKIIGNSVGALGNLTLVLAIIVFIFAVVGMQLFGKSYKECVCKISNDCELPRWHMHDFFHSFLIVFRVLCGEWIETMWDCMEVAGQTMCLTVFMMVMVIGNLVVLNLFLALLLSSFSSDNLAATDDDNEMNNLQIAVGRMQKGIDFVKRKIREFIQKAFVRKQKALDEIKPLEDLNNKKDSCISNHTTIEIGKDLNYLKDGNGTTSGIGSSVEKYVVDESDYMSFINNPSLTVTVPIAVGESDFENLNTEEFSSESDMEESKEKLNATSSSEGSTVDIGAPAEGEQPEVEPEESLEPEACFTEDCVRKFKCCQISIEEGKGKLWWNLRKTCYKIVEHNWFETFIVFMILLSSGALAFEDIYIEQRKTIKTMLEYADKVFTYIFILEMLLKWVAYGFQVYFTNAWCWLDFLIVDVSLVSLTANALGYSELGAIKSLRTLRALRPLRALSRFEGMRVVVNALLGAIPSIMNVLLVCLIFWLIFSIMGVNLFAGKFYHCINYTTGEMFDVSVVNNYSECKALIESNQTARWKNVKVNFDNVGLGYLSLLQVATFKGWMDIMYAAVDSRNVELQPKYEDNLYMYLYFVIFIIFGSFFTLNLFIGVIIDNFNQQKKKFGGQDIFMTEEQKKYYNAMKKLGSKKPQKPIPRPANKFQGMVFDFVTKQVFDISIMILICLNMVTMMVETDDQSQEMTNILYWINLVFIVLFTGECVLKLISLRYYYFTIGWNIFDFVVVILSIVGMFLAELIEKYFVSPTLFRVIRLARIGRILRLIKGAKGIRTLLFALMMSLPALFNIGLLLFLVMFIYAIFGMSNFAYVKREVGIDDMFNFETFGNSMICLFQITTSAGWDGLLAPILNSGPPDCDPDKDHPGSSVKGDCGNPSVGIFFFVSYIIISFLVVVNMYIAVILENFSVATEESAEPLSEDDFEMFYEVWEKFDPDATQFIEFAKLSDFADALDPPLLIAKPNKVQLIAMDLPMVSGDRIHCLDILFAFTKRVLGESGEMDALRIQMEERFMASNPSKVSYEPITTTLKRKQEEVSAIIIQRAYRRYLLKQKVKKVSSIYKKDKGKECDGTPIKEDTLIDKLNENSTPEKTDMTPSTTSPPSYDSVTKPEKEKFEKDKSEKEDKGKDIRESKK
T1 sequence (P28223 whole entry): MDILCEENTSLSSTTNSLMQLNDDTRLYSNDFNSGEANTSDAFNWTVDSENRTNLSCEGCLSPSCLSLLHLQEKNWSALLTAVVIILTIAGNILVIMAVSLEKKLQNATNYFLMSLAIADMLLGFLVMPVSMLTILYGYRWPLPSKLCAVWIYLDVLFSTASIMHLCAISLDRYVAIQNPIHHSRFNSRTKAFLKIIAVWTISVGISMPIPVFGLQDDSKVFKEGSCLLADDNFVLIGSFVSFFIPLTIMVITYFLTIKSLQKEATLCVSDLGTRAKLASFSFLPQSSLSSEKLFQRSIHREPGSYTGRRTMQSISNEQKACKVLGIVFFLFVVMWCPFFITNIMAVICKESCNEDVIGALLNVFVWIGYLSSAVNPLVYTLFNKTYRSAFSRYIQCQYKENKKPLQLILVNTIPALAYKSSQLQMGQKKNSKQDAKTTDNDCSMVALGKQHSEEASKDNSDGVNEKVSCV

On to `CO[C@H](CCN1CCC(Oc2ccccc2)CC1)c1ccccc1` [Example 229, (R)-1-(3-methoxy-3-phenylpropyl)-4-phenoxypiperidine], for which the IC50 came out at 1080 nM in test [1] and 0.03 µM in test [2] (read-out: 5HT2A IC50).
As to `O=C1c2ccccc2CCN1CCN1CCC(Oc2cccc(F)c2)CC1` [Example 193, 2-(2-(4-(3-fluorophenoxy)piperidin-1-yl)ethyl)-3,4-dihydroisoquinolin-1(2H)-one], the inhibition at 10 µM in test [1] came to 66%. Besides, the IC50 in test [2] (read-out: 5HT2A IC50) is 0.33 µM.
On to `O=C(NCCN1CCCCC1)c1cccc(-c2ccc(Oc3ccc(F)cc3)cc2)n1` [Example 447, 6-(4-(4-fluorophenoxy)phenyl)-N-(2-(piperidin-1-yl)ethyl)picolinamide], for which the inhibition at 10 µM in test [1] came out at 99%. Also, the IC50 in test [2] (read-out: 5HT2A IC50) stood at 1.26 µM.
Turning to `COc1ccc2c(c1)C(CN1CC[C@@H]3C[C@H]1CN3c1ccccc1)CC2` (stereo partly drawn) [Example 319, (1S,5R)-2-((6-methoxy-2,3-dihydro-1H-inden-1-yl)methyl)-6-phenyl-2,6-diazabicyclo[3.2.1]octane], the IC50 turned out to be 40 nM in test [1] and 1.21 µM in test [2] (read-out: 5HT2A IC50).
`COc1ccccc1OC1CCN(CC2c3ccccc3OC2(C)C)CC1` (stereo not drawn) [Example 129, 1-((2,2-dimethyl-2,3-dihydrobenzofuran-3-yl)methyl)-4-(2-methoxyphenoxy)piperidine]: the IC50 amounted to 1060 nM in test [1] and 0.4 µM in test [2] (read-out: 5HT2A IC50).
In the same order, the values of `c1ccc(OC2CCN(CCC3COCc4ccccc43)CC2)cc1` (stereo not drawn) [Example 179, 1-(2-(isochroman-4-yl)ethyl)-4-phenoxypiperidine] are 610 nM and 0.06 µM.
As for `O[C@H](CCN1CCC(Oc2ccccc2)CC1)c1ccccc1` [Example 227, (R)-3-(4-phenoxypiperidin-1-yl)-1-phenylpropan-1-ol], the inhibition at 10 µM in test [1] came out at 53%. Moreover, the IC50 in test [2] (read-out: 5HT2A IC50) came out at 0.14 µM.
As for `O=C1c2ccccc2CCN1CCN1CCC2(CCc3ccccc3O2)CC1` [Example 422, 2-(2-(spiro[chromane-2,4′-piperidin]-1′-yl)ethyl)-3,4-dihydroisoquinolin-1(2H)-one], the IC50 in test [1] came out at 400 nM; in test [2] (read-out: 5HT2A IC50), 0.07 µM.
In the same order, the values of `Fc1ccc(OC2CCN(CCC3CCc4cccnc43)CC2)cc1` (stereo not drawn) [Example 175, 7-(2-(4-(4-fluorophenoxy)piperidin-1-yl)ethyl)-6,7-dihydro-5H-cyclopenta[b]pyridine] are 440 nM and 0.01 µM.
For the molecule `Fc1ccc(OC2CCN(CCC3CCc4cnccc43)CC2)cc1` (stereo not drawn) [Example 173, 5-(2-(4-(4-fluorophenoxy)piperidin-1-yl)ethyl)-6,7-dihydro-5H-cyclopenta[c]pyridine], the IC50 is 3170 nM in test [1] and 0.01 µM in test [2] (read-out: 5HT2A IC50).
Regarding `OC(COC1CCCCC1)CN1CCN(Cc2ccccc2)CC1` (stereo not drawn) [Example 75, 1-(4-benzylpiperazin-1-yl)-3-(cyclohexyloxy)propan-2-ol], the inhibition at 10 µM in test [1] was determined as 21%. Moreover, the IC50 in test [2] (read-out: 5HT2A IC50) is greater than 4.2 µM.
As to `O[C@@H](COC1CCCCC1)CN1[C@@H]2CC[C@H]1CN(c1ccccc1)C2` [Example 288, (R)-1-(cyclohexyloxy)-3-((1R,5S)-3-phenyl-3,8-diazabicyclo[3.2.1]octan-8-yl)propan-2-ol], the IC50 was 440 nM in test [1] and 0.04 µM in test [2] (5HT2A IC50, μM).
Regarding `COc1cccc(OCCN2CCN(c3nsc4ccccc34)CC2)c1` [Example 68, 3-(4-(2-(3-methoxyphenoxy)ethyl)piperazin-1-yl)benzo[d]isothiazole], the half-inhibitory concentration (IC50) was determined as 730 nM in test [1] and 0.004 µM in test [2] (read-out: 5HT2A IC50).
On to `O=C1c2ccccc2CCN1CCN1CC[C@@H](Oc2ccc(F)cc2)C1` [Example 25, (R)-2-(2-(3-(4-fluorophenoxy)pyrrolidin-1-yl)ethyl)-3,4-dihydroisoquinolin-1(2H)-one], for which, in test [1], the inhibition at 10 µM is 83%. Besides, the IC50 in test [2] (read-out: 5HT2A IC50) worked out at 0.17 µM.
Consider `COc1ccc2c(c1)C(CN1CC3CC(C1)N(c1ccccc1)C3)CC2` (stereo not drawn) [Example 328, 3-((6-methoxy-2,3-dihydro-1H-inden-1-yl)methyl)-6-phenyl-3,6-diazabicyclo[3.2.1]octane], for which, in test [1], the inhibition at 1 µM stood at 31%. In addition, in test [2] (read-out: 5HT2A IC50), the IC50 came to 5.31 µM.
`O[C@@H](COC1CCCCC1)CN1CCC2(CCc3ccccc3O2)CC1` [Example 438, (R)-1-(cyclohexyloxy)-3-(spiro[chromane-2,4′-piperidin]-1′-yl)propan-2-ol]: the half-maximal inhibitory concentration (IC50) in test [1] came to 1310 nM; in test [2] (read-out: 5HT2A IC50) it was 0.15 µM.
In the case of `OC1(CN2CC[C@H](Oc3ccc(F)cc3)C2)COCc2ccccc21` (stereo partly drawn) [Example 10, 4-(((S)-3-(4-fluorophenoxy)pyrrolidin-1-yl)methyl)isochroman-4-ol], the inhibition at 1 µM in test [1] stood at 3%. In addition, in test [2] (read-out: 5HT2A IC50), the IC50 turned out to be 0.31 µM.
`OC(CO[C@@H]1CCc2ccccc21)CN1CC[C@H](Oc2ccc(F)cc2)C1` (stereo partly drawn) [Example 45, 1-(((R)-2,3-dihydro-1H-inden-1-yl)oxy)-3-((S)-3-(4-fluorophenoxy)pyrrolidin-1-yl)propan-2-ol]: the inhibition at 10 µM in test [1] was found to be 85%. Moreover, in test [2] (read-out: 5HT2A IC50), the IC50 worked out at 0.61 µM.
Consider `O[C@@H](COC1CCCCC1)CN1CCC2(CCN(c3ccccc3)C2)C1` (stereo partly drawn) [Example 346, (2R)-1-(cyclohexyloxy)-3-(7-phenyl-2,7-diazaspiro[4.4]nonan-2-yl)propan-2-ol], for which the IC50 in test [1] worked out at 320 nM; in test [2] (read-out: 5HT2A IC50), 0.27 µM.
`O=C(CN1CCC(Oc2ccc(F)cc2)CC1)C1CCc2ccccc21` (stereo not drawn) [Example 215, 1-(2,3-dihydro-1H-inden-1-yl)-2-(4-(4-fluorophenoxy)piperidin-1-yl)ethan-1-one]: the inhibition at 1 µM in test [1] came to 25%. The IC50 in test [2] (read-out: 5HT2A IC50) came out at 0.19 µM.
For `O=C1Cc2ccccc2N1CCN1CCC(Oc2ccc(F)cc2)CC1` [Example 185, 1-(2-(4-(4-fluorophenoxy)piperidin-1-yl)ethyl)indolin-2-one], in test [1], the inhibition at 1 µM amounted to 19%. In test [2] (5HT2A IC50, μM), the concentration for half-maximal inhibition (IC50) is 0.01 µM.
As for `CCC(=O)c1ccc(OCC(O)CN2CCN(c3ccccc3)CC2)cc1` (stereo not drawn) [Example 88, 1-(4-(2-hydroxy-3-(4-phenylpiperazin-1-yl)propoxy)phenyl)propan-1-one], the values for the IC50 in test [1] and in test [2] (read-out: 5HT2A IC50) were 31200 nM and 0.58 µM, respectively.
As for `N#Cc1ccccc1OC1CCN(CC2CCOc3ccccc32)CC1` (stereo not drawn) [Example 161, 2-((1-(chroman-4-ylmethyl)piperidin-4-yl)oxy)benzonitrile], in test [1], the inhibition at 1 µM was determined as 12%. Besides, the IC50 in test [2] (read-out: 5HT2A IC50) was 0.05 µM.
For `c1ccc2c(c1)CCC1(CCN(CC3CCc4ccccc43)C1)O2` (stereo not drawn) [Example 387, 1′-((2,3-dihydro-1H-inden-1-yl)methyl)spiro[chromane-2,3′-pyrrolidine]], in that order: 29% and 0.03 µM.
In the same order, the values of `N#Cc1ccc(OC2CCN(CC3CCOc4ccccc43)CC2)cc1` (stereo not drawn) [Example 166, 4-((1-(chroman-4-ylmethyl)piperidin-4-yl)oxy)benzonitrile] are -2% and 0.31 µM.
In the case of `COc1ccc(OC2CCN(CCN3CCc4ccccc4C3=O)CC2)cc1` [Example 202, 2-(2-(4-(4-methoxyphenoxy)piperidin-1-yl)ethyl)-3,4-dihydroisoquinolin-1(2H)-one], the inhibition at 10 µM in test [1] was 62%. Besides, the IC50 in test [2] (read-out: 5HT2A IC50) stood at 0.174 µM.
In the case of `NCCOc1ccc2c(c1)C(CN1CCC(Oc3ccc(F)cc3)CC1)CC2` (stereo not drawn) [Example 114, 2-((3-((4-(4-fluorophenoxy)piperidin-1-yl)methyl)-2,3-dihydro-1H-inden-5-yl)oxy)ethan-1-amine], the inhibition at 10 µM in test [1] was 52%. The IC50 in test [2] (read-out: 5HT2A IC50) was 0.07 µM.

A word on the IC50: it is the concentration at which inhibition is half-maximal.
